Results from ChEMBL document CHEMBL4321852, “Structure-Based and Property-Driven Optimization of N-Aryl Imidazoles toward Potent and Selective Oral RORγt Inhibitors” (J Med Chem, 2019).

What was measured:
[1] = Inhibition of RORgammat in rat CD4+ T-cells polarized with Th17 cytokine mix assessed as inhibition of IL-17 secretion
[2] = Distribution coefficient of the compound, high-throughput logD using octanol-buffer at pH 7.4 by LC-MS/MS analysis shake flask method; type: physicochemical
[3] = Volume of distribution at steady state in Sprague-Dawley rat at 1 mg/kg, iv; type: ADME, organism-based; details: in vivo, read-out: Vdss
[4] = Dose normalized Cmax in DA rat at 5 mg/kg, po; type: ADME, organism-based; details: in vivo
[5] = biological target: T1, Nuclear receptor ROR-gamma (Homo sapiens, UniProt P51449); assay: Inhibition of Gal4-tagged RORgammat LBD (unknown origin) by cell based luciferase reporter gene assay
T1 sequence (P51449 whole entry): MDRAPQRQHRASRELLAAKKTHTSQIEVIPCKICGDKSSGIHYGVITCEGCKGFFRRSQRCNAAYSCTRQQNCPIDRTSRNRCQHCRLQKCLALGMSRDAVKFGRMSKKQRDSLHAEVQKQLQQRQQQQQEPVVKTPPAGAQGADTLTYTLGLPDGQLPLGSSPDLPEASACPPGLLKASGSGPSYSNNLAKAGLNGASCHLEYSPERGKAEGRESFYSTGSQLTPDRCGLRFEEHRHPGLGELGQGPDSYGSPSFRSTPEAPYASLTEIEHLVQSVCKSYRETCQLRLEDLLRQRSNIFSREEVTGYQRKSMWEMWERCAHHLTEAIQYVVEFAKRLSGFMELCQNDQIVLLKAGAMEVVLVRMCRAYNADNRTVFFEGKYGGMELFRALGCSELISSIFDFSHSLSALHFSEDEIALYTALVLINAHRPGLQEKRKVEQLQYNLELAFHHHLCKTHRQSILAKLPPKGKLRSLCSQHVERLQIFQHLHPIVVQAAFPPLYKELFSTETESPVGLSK

[6] = biological target: T2, Nuclear receptor ROR-alpha (Homo sapiens, UniProt P35398); assay: Inhibition of Gal4-tagged RORalpha LBD (unknown origin) by cell based luciferase reporter gene assay
T2 sequence (P35398 whole entry): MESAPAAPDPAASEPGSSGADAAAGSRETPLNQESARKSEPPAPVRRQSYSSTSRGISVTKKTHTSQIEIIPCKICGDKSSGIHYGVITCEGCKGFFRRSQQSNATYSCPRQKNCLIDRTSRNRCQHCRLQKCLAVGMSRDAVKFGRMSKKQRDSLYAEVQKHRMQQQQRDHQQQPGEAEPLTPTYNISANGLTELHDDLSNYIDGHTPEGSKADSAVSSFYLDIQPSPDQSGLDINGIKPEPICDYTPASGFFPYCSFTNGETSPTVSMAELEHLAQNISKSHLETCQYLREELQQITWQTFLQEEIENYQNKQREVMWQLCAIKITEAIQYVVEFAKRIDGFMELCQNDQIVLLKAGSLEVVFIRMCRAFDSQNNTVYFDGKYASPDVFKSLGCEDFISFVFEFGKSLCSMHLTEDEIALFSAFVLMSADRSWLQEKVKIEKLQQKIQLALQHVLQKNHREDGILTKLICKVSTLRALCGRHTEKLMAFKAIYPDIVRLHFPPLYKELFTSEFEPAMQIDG

[7] = biological target: T3, Nuclear receptor ROR-beta (Homo sapiens, UniProt Q92753); assay: Inhibition of Gal4-tagged RORbeta LBD (unknown origin) by cell based luciferase reporter gene assay
T3 sequence (Q92753 whole entry): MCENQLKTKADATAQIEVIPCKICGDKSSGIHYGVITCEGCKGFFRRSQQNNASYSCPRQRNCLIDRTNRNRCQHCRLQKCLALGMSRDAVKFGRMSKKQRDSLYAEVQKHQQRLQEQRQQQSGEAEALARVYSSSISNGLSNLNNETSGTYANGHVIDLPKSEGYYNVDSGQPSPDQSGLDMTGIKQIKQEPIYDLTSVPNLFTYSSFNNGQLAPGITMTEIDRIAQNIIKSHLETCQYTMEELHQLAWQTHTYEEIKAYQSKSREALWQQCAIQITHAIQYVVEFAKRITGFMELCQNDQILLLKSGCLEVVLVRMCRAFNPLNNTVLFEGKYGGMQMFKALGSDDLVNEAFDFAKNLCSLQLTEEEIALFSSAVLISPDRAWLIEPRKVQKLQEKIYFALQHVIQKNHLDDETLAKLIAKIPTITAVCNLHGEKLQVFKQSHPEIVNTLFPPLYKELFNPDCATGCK

[8] = biological target: T4, Peroxisome proliferator-activated receptor gamma (Homo sapiens, UniProt P37231); assay: Inhibition of Gal4-tagged PPARgamma LBD (unknown origin) by cell based luciferase reporter gene assay
T4 sequence (P37231 whole entry): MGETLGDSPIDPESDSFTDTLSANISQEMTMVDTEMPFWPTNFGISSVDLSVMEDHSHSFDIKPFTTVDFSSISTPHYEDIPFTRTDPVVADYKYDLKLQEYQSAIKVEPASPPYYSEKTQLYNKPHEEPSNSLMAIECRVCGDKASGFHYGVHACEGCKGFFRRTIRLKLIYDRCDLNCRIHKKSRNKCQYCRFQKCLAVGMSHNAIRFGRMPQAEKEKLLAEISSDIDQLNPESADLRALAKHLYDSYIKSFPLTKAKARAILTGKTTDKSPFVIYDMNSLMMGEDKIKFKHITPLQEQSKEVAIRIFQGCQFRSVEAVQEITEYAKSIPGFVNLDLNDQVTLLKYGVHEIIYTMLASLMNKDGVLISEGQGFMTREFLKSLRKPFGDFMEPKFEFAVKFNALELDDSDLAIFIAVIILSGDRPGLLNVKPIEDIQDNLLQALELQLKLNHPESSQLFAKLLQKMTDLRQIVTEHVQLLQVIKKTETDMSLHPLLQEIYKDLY

[9] = biological target: T5, Nuclear receptor subfamily 1 group I member 2 (Homo sapiens, UniProt O75469); assay: Inhibition of Gal4-tagged PXR LBD (unknown origin) by cell based luciferase reporter gene assay
T5 sequence (O75469 whole entry): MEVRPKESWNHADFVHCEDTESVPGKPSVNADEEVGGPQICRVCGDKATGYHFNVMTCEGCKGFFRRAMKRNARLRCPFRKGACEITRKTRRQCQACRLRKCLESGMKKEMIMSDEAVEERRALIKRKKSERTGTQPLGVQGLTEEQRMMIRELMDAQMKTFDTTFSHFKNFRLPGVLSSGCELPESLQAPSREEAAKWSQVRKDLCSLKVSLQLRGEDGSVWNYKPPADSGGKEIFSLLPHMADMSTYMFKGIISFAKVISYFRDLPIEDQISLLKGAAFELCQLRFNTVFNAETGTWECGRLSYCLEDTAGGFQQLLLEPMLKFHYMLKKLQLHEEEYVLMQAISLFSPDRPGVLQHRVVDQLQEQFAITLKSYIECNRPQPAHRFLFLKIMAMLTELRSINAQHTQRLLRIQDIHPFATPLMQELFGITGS

[10] = biological target: T1, Nuclear receptor ROR-gamma; assay: Inhibition of human GAL4-DBD fused RORgammat LBD expressed in human Jurkat cells assessed as inhibition of receptor transactivation after 24 hrs by luciferase reporter gene assay; type: cell-based
[11] = system: Rattus norvegicus; assay: Anti-inflammatory activity in mBSA/CFA-immunized Lewis rat delayed-type hypersensitivity model assessed as reduction in ear swelling at 1 to 15 mg/kg, po via gavage administered twice daily for 2 days treated prior to mBSA/CFA challenge measured after up to 50 hrs; type: functional, organism-based

IC50 [1]: 387 nM
logD [2]: 2
Vd [3]: 1 L/kg
Cmax/dose [4]: 2448 nM
IC50 [5]: 151 nM
IC50 [6]: > 10000 nM
IC50 [7]: > 10000 nM
IC50 [8]: > 10000 nM
IC50 [9]: > 10000 nM
IC50 [10]: 151 nM
SMILES: Cc1c(C2(C(F)(F)F)CC2)nc(C2CC2)n1-c1c(Cl)ccc(N2CC3(CC(C(=O)O)C3)C2)c1Cl (single isomer, unassigned; atropisomer)
Activity [11]: Dose-dependent effect
